Values quoted from earlier work in patent US20080268045A1, “SUSTAINED RELEASE METHOTREXATE FORMULATIONS AND METHODS OF USE THEREOF” (Proprius Pharmaceuticals, Inc., priority 2006, published 2008).

Q: Which “Bioavailability of orally dosed methotrexate” value (higher dose strength (10-15 mg/dose)) does the source give for `CN(Cc1cnc2nc(N)nc(N)c2n1)c1ccc(C(=O)N[C@@H](CCC(=O)O)C(=O)O)cc1` [methotrexate] here?
A: The value was 30-40%.

Q: And the “Bioavailability of orally administered methotrexate” value (lower dose strength)?
A: The value was ≤ 60%.
